The values that follow are results of earlier work, collected in paper PMC6260473 (Saudi Pharmaceutical Journal : SPJ, 2018).

The data set deals with human colorectal adenocarcinoma cell lined HT29. The conditions noted are these: read-out: IC50, cytotoxic effect, ref Nowak et al., 2014.

For `COc1ccc(Cn2cnc3c(cc(N4CCOCC4)c4ccccc43)c2=O)cc1` [3-(4-methoxybenzyl)-6-(morpholin-4-yl)benzo[h]quinazolin-4(3H)-one], the 50% inhibitory concentration (IC50) is 4.12 µM. On to `N.N.[Cl][Pt][Cl]` [cisplatin], for which the IC50 is 8.47 µM.
